Earlier results, collected in patent publication US6916480B2, “Wiper containing a controlled-release anti-microbial agent” (Kimberly-Clark Worldwide, Inc., priority 1999, dated 2005).

Tests used:
E. Coli = settings: according to most literature
Salmonella spp. = settings: according to most literature

For [Ag] [silver], the “silver content that can effectively kill microbes” value (E. Coli) is listed as 20 parts per billion (ppb) and the “silver content that can effectively kill microbes” value (Salmonella spp.) is listed as 20 parts per billion (ppb).
